# Legend:
# [1] = system: conversion of CoA into 4′-phosphopantetheine in serum; type: biochemical; conditions: serum pre-treated with the agent, CoA 10 μM, 3 hours
# Experimental: (PpanSH=4′-phosphopantetheine; in all panels CoA was added to the indicated sera with a final starting concentration of 10 μM measured by HPLC analysis and percentages relative to CoA incubation for 3 hours in PBS (=100%) are indicated on the y-axis).
# Serum from various species (fetal calf, mouse and human) was pre-conditioned, and CoA conversion into 4′-phosphopantetheine was assessed. First, the effect of heat inactivation of the serum was studied. […] Second, the conversion of CoA to 4′-phosphopantetheine requires the hydrolysis of a phosphoanhydride bond, which is typically catalyzed by (pyro)phosphatases or hydrolases. The majority of enzymes in the known family of (pyro)phosphatases and hydrolases depend on metal ions for their activity. To test these candidates, EDTA was added to serum to chelate metal ions.
# [2] = system: primary human fibroblasts from healthy controls, MCAD deficiency and PA deficiency patients; assay: Mitochondrial stress test (Seahorse), basal OCR of primary fibroblasts; type: cell-based; conditions: data not shown
# Text: A study was thus performed to test the ability of S-acetyl-(S)-4′-phosphopantetheine to facilitate increased basal oxidative respiration in primary fibroblast cultures from patients diagnosed with MCAD deficiency and PA deficiency. Impaired metabolism were observed through functional measurements of respiration using a Seahorse XF Analyzer, where oxygen consumption rate (OCR) reflects oxidative respiration.
# Patient derived cell lines were subject to a mitochondrial stress test according to standard protocol with a cell seeding density of 30 k cells/well (n=2) in glucose free media. After incubation with various concentrations of S-acetyl-4′-phosphopantetheine or vehicle for 24 h, rescue potential was assessed by increase in basal OCR (average of six readings between 30-70 min), relative to control: basal OCR from vehicle treatment was set to 1.0. […] Experiment was performed in two replicates: systematically outlying values caused by seeding errors, port failures, or values within background were excluded from analysis.
# [3] = system: MCAD patient fibroblast cell lines; assay: Mitochondrial stress test (Seahorse), reserve capacity of MCAD patient fibroblasts; type: cell-based, human; conditions: all cell lines, data not shown
# Text: Medium-chain acyl-CoA dehydrogenase (MCAD) deficiency is a condition in which the body's capacity to break down fats with medium chain lengths is impaired, caused by mutations in the ACADM gene, which can lead to hypoglycaemia, and liver dysfunction. Left untreated, it can lead to seizures, coma and other serious health problems, with acute symptoms often preceded by extended periods of fasting or an infection with vomiting. Impaired metabolism were observed through functional measurements of respiration using a Seahorse XF Analyzer, where oxygen consumption rate (OCR) reflects oxidative respiration.
# A study was performed to test the Rescue potential of S-acetyl-4′-phosphopantetheine in primary patient fibroblast model of MCAD deficiency. MCAD patient fibroblast cell lines (genotyped as containing homozygous K304E mutations in ACADM) were subject to a mitochondrial stress test according to standard protocol with a cell seeding density of 30 k cells/well (n=2). Rescue potential was assessed by increase in reserve capacity: defined as the difference between basal and maximal OCR, controlled by subtracting values for non-mitochondiral respiration (after rotenone treatment). The study was performed in two replicates.
# [4] = Parallel Artificial Membrane Permeability Assay (PAMPA); type: in vitro ADME; conditions: PAMPA
# Experimental: FIG. 13E is a depiction of a Parallel Artificial Membrane Permeability Assay (PAMPA). Experiments were performed according to the manufacturer's instructions. In this assay, a two-well system is separated by an artificial lipid-oil-lipid membrane (shown in grey). To the lower (donor) compartment, a compound dissolved in buffer is added, the upper (acceptor) compartment contains only buffer. After 5 hours of incubation, concentration of compound is measured in both wells to assess its propensity to diffuse over the artificial membrane. The permeability was calculated according to the manufacturer's instruction (formulas are depicted to the right). Compounds that are below the assay threshold are predicted to be unable to pass membranes passively, whereas compounds above the threshold are able to pass membranes passively. Ceq=Equilibrium Concentration, CD=Concentration in donor well, VD=Volume of donor well (0.3 ml), CA=Concentration in acceptor well, VA=Volume of acceptor well (0.2 ml), P=Permeability, S=Membrane area (0.3 cm2), t=Incubation time (18000 s).
# PAMPA assay procedure: Parallel Artificial Membrane Permeability Assay (PAMPA) was performed and processed according to manufacturer's instructions (BD Gentest Pre-coated PAMPA plates). Briefly, two superimposed wells are separated by an artificial lipid-oil-lipid membrane. The compound of interest (PPanSH, CoA, caffeine, amiloride) was added to the bottom well in phosphate-buffered saline, whereas the top well was filled with phosphate-buffered saline alone. After 5 h of incubation at room temperature, concentrations of the different compounds were measured using UV-VIS absorption spectroscopy (BMG Labtech SPECTROstar Omega) along with calibration curves for all compounds. The permeability efficiency was further calculated according to manufacturer's instructions. For caffeine and amiloride, four replicates were performed; for PPanSH and CoA twelve replicates were performed. Caffeine and amiloride were obtained from Sigma.
# HEK293 cells = assay: HoPan treatment of mammalian HEK293 cells in combination with CoA or 4′-phosphopantetheine; type: cell-based, human; conditions: HoPan alone
# Experimental: HoPan treatment of mammalian HEK293 Cells in combination with CoA and 4′-phosphopantetheine treatment: HEK293 cells were maintained in dMEM (Invitrogen) supplemented with 10% fetal calf serum (Gibco) and antibiotics (penicillin/streptomycin, Invitrogen). For HoPan treatment, cells were cultured in custom made dMEM without vitamin B5 (Thermo Scientific) supplemented with dialyzed FCS (Thermo Scientific). CoA or PPanSH was added to HEK293 cells for the final concentration of 25 uM, either in the presence or absence of HoPan (0.5 mM) for 4 days, followed by analysis for phenotype and rescue efficiency of CoA and PPanSH.
# Western blot analysis and Antibodies: For Western blot analysis, cells were collected and washed with phosphate buffer saline (PBS), followed by centrifugation. The cells were lysed and sonicated in 1X Laemmli Sample Buffer and boiled for 5 min with 5% β-mercaptoethanol (Sigma). Protein content was determined using DC protein assay (BioRad). Equal amounts of protein were loaded on a 10 or 12.5% SDS-PAGE gel, transferred onto PVDF membranes and blocked with 5% milk in PBS/0.1% Tween, followed by overnight incubation with primary antibodies. The primary antibodies used were: rabbit-anti dPANK/fbl, 1:4000 Eurogentec custom made as described previously5, mouse anti-tubulin (Sigma Aldrich Cat no: T5168, 1:5000), anti-acetyl-Histone3 (Active Motif Cat no: 39139, 1:2000), anti GAPDH (Fitzgerald Cat no: 10R-G109a, 1:10000), rabbit anti COASY (Abcam Cat no: AB129012, 1:1000). Appropriate HRP-conjugated secondary antibodies (Amersham) were used and detection was performed using enhanced chemi-luminescence (Pierce cat nog: 32106) and Amersham hyperfilm (GE Healthcare). Band intensities were quantified with Image-studio software.
# Drosophila S2 cells = assay: HoPan treatment of Drosophila S2 cells in combination with CoA or 4′-phosphopantetheine; type: cell-based; conditions: HoPan alone
# Experimental: HoPan treatment of Drosophila S2 Cell in combination with CoA or 4′-phosphopantetheine treatment: Drosophila Schneider's S2 cells were maintained at standard conditions as explained above. Cells in the exponential phase of growth were used for all the experiments. Different indicated concentrations of CoA or 4′-phosphopantetheine (deuterium labelled PPanSH(D4) or unlabeled PPanSH) were added to S2 cells either in the presence or absence of 0.5 mM HoPan (Zhou Fang Pharm Chemical, China) for 48 h. Similarly, Drosophila S2 cells were treated with different concentrations of PPanSH(D4) at either 25° C. or 4° C. and cells were then harvested at various time points to access transport of PPanSH(D4). Stable isotope labelled PPanSH containing 4 deuterium atoms was purchased from Syncom (Groningen, The Netherlands) as a sodium salt (chemical structure is provided in FIG. 13A). As a read out cell count, intracellular total CoA and PPanSH levels (both labelled and unlabeled levels wherever appropriate) and histone acetylation levels were analyzed as explained below.
# Drosophila S2 Cell Immunofluorescence Staining: For immunofluorescence Drosophila S2 cells were seeded on Poly-L-Lysine coated (Sigma-Aldrich) glass microscope slides and allowed to settle for 45 min. Cells were fixed with 3.7% formaldehyde (Sigma Aldrich) for 20 min, washed briefly with PBS+0.1% Triton-X-100 (Sigma Aldrich) and permeabilized with PBS+0.2% Triton-X-100 for 20 min. The slides were incubated in primary antibody (rabbit anti-AcLys, Cell Signaling Cat No: 9441, 1:500) to visualize histone acetylation levels in PBS+0.1% Triton-X-100 overnight and after an additional washing step in PBS+0.1% Triton-X-100 they were incubated in secondary goat anti-rabbit-Alexa488 antibody (Molecular Probes) for two hours at room temperature (RT). F-actin was detected with Rhodamin-Phalloidin (20 U/ml)(Invitrogen) and DNA by staining with DAPI (0.2 ug/ml) (Thermo Scientific). Finally the samples were mounted in 80% glycerol and analyzed using a Leica fluorescence microscope with Leica software. Adobe Photoshop and Illustrator (Adobe Systems Incorporated, San Jose, Calif., USA) were used for image assembly.
# [5] = system: Drosophila w1118 control fly line; assay: Drosophila HoPan toxicity and CoA rescue experiment (eclosion); type: in vivo; conditions: HoPan in the food during development
# Text: Drosophila HoPan Toxicity and CoA Rescue Experiment: One week old w1118 flies (in the ratio 10 females and 5 males) were kept in vials containing standard fly food with or without HoPan and CoA at indicated concentrations. The flies were allowed to lay eggs for 2 days, after which the adults were discarded. The resulting offspring were allowed to develop. The numbers of flies which eclosed were counted to evaluate HoPan toxicity and CoA rescue efficiency.
compound,measurement,setting,value
O=C(O)CN(CCN(CC(=O)O)CC(=O)O)CC(=O)O [EDTA],effect on conversion (degradation) of CoA into 4′-phosphopantetheine in serum,[1],completely prevented the formation of 4′-phosphopantetheine
C=C(C)[C@H]1Cc2c(ccc3c2O[C@@H]2COc4cc(OC)c(OC)cc4[C@@H]2C3=O)O1 [Rotenone],cell line response to positive control,[2],generated expected profiles
same,cell line response to positive control,[3],generated expected profiles of ETC inhibition
Cn1c(=O)c2c(ncn2C)n(C)c1=O [caffeine],membrane permeation (PAMPA),[4],well-permeating compound
"CC(C)(CO)[C@@H](O)C(=O)NCCCC(=O)O [HoPan, Hopantenate]",intracellular CoA levels,"HEK293 cells; HEK293 cells, HPLC",significantly reduced
same,cell count of HEK293 cells,HEK293 cells,decreased cell count
same,histone acetylation of HEK293 cells,HEK293 cells,impaired histone acetylation
same,cell count of S2 cells,Drosophila S2 cells,induced a decrease in cell count
same,histone acetylation levels of S2 cells,Drosophila S2 cells,induced a decrease
same,intracellular CoA levels,"Drosophila S2 cells; S2 cells, HPLC",significantly reduced
same,intracellular levels of 4′-phosphopantetheine,"Drosophila S2 cells; S2 cells, HPLC",reduced levels of 4′-phosphopantetheine
same,eclosion rate,[5],decreased
same,larval lethality,[5],larval lethality was induced
Nc1ncnc2c1ncn2[C@@H]1O[C@H](COP(=O)(O)OP(=O)(O)O)[C@@H](O)[C@H]1O [ADP],effect on conversion (degradation) of CoA into 4′-phosphopantetheine in serum,[1],competitively blocked the conversion
"O=S(=O)(O)c1cc(N=C=S)ccc1C=Cc1ccc(N=C=S)cc1S(=O)(=O)O [DIDS, 4,4′-diisothiocyanatostilbene-2,2′ disulphonic acid]",effect on conversion (degradation) of CoA into 4′-phosphopantetheine in serum,[1],able to inhibit
Nc1ncnc2c1ncn2[C@@H]1O[C@H](COP(=O)(O)OP(=O)(O)OP(=O)(O)O)[C@@H](O)[C@H]1O [ATP],effect on conversion (degradation) of CoA into 4′-phosphopantetheine in serum,[1],competitively blocked the conversion
N=C(N)NC(=O)c1nc(Cl)c(N)nc1N [amiloride],membrane permeation (PAMPA),[4],poorly permeating molecule
Cc1ccc(C(=O)Nc2ccc(S(=O)(=O)O)c3cc(S(=O)(=O)O)cc(S(=O)(=O)O)c23)cc1NC(=O)c1cccc(NC(=O)Nc2cccc(C(=O)Nc3cc(C(=O)Nc4ccc(S(=O)(=O)O)c5cc(S(=O)(=O)O)cc(S(=O)(=O)O)c45)ccc3C)c2)c1 [suramin],effect on conversion (degradation) of CoA into 4′-phosphopantetheine in serum,[1],able to inhibit
"c1ccc([C@H]2CN3CCSC3=N2)cc1 [Levamisole, levamisole]",effect on conversion (degradation) of CoA into 4′-phosphopantetheine in serum,[1],only mild or no inhibition
"[F-].[Na+] [sodium fluoride, Sodium fluoride]",effect on conversion (degradation) of CoA into 4′-phosphopantetheine in serum,[1],only mild or no inhibition
